Experimental data: PubChem BioAssay AID206 (DTP/NCI, 2004)
Several values for one entry are separate records, joined by “and”; a condition that tells them apart may be missing. Identical values can stand only once. Records with an inconclusive call do not appear.

Tested on: nude mice, HT29 intrarenal xenograft, tumor weight T/C
Assay: NCI In Vivo Anticancer Drug Screen. Data for tumor model HT29;CX-1 Human Adenocarcinoma (MER+) (intrarenal inoculation) in NU/NU Swiss (nude) mice
Details: endpoint: mean tumor weight change, higher = larger tumour
Outline: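 Readout: treated/vehicle-control ratio of the measured endpoint (tumor size or survival) in transplanted-tumor mice.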

[1] = dose: 200.0 mg/kg/injection, schedule: Q01DX010 (sc), vehicle: saline
[2] = dose: 300.0 mg/kg/injection, schedule: Q04DX004 (sc), vehicle: Klucel (hydroxypropylcellulose) (HPC)
[3] = dose: 600.0 mg/kg/injection, schedule: Q04DX004 (sc), vehicle: Klucel (hydroxypropylcellulose) (HPC)
[4] = dose: 2400.0 mg/kg/injection, schedule: Q04DX004 (sc), vehicle: Klucel (hydroxypropylcellulose) (HPC)
[5] = dose: 400.0 mg/kg/injection, schedule: Q04DX004 (sc), vehicle: saline with Tween-80
[6] = dose: 800.0 mg/kg/injection, schedule: Q04DX004 (sc), vehicle: saline with Tween-80

CC/C(=C(/CC)c1ccc(O)cc1)c1ccc(O)cc1
T/C (dose: 150.0 mg/kg/injection, schedule: Q04DX004 (sc), vehicle: saline with Tween-80): 70 % of control
T/C (dose: 300.0 mg/kg/injection, schedule: Q04DX004 (sc), vehicle: saline with Tween-80): 69 % of control

CNNCc1ccc(C(=O)NC(C)C)cc1
T/C (dose: 50.0 mg/kg/injection, schedule: Q01DX010 (sc), vehicle: saline): 194 % of control
T/C [1]: 63 % of control and 77 % of control

O=C(O)c1cc(Cc2ccc(O)c(C(=O)O)c2)ccc1O (tested in a mixture with another compound)
T/C [2]: 62 % of control
T/C [3]: 57 % of control
T/C (dose: 1200.0 mg/kg/injection, schedule: Q04DX004 (sc), vehicle: Klucel (hydroxypropylcellulose) (HPC)): 114 % of control
T/C [4]: 104 % of control

NC(=S)c1ncn(C2OC(CO)C(O)C2O)c1N (stereo unspecified)
T/C (dose: 150.0 mg/kg/injection, schedule: Q04DX004 (sc), vehicle: suspension in saline): 95 % of control
T/C (dose: 300.0 mg/kg/injection, schedule: Q04DX004 (sc), vehicle: suspension in saline): 120 % of control
T/C (dose: 600.0 mg/kg/injection, schedule: Q04DX004 (sc), vehicle: suspension in saline): 102 % of control
T/C (dose: 1200.0 mg/kg/injection, schedule: Q04DX004 (sc), vehicle: suspension in saline): 66 % of control

CC(=O)NCCCCCCNC(C)=O
T/C [1]: 88 % of control
T/C (dose: 800.0 mg/kg/injection, schedule: Q01DX010 (sc), vehicle: saline): 95 % of control
T/C (dose: 1600.0 mg/kg/injection, schedule: Q01DX010 (sc), vehicle: saline): 97 % of control and 117 % of control
T/C (dose: 3200.0 mg/kg/injection, schedule: Q01DX010 (sc), vehicle: saline): 110 % of control

O=C1[C@H]2CCC[C@H]2[C@H]2CCC[C@@H]12
T/C (dose: 100.0 mg/kg/injection, schedule: Q04DX004 (sc), vehicle: saline with Tween-80): 67 % of control
T/C (dose: 200.0 mg/kg/injection, schedule: Q04DX004 (sc), vehicle: saline with Tween-80): 44 % of control
T/C [5]: 83 % of control
T/C [6]: 82 % of control

CC(=O)NC(CCc1ccc(Cl)c(Cl)c1)c1cccc(O)c(=O)c1 (stereo unspecified)
T/C (dose: 50.0 mg/kg/injection, schedule: Q04DX004 (sc), vehicle: Klucel (hydroxypropylcellulose) (HPC)): 107 % of control
T/C (dose: 100.0 mg/kg/injection, schedule: Q04DX004 (sc), vehicle: Klucel (hydroxypropylcellulose) (HPC)): 124 % of control
T/C (dose: 200.0 mg/kg/injection, schedule: Q04DX004 (sc), vehicle: Klucel (hydroxypropylcellulose) (HPC)): 154 % of control

C1CC[N-]CC1.[Cl][Pt+2][Cl].[NH-]C1CC1
T/C (dose: 50.0 mg/kg/injection, schedule: Q04DX004 (sc), vehicle: water): 51 % of control and 54 % of control
T/C (dose: 100.0 mg/kg/injection, schedule: Q04DX004 (sc), vehicle: water): 17 % of control

CCCCCCOC(CN(C)C)C(Cl)(Cl)Cl (stereo unspecified)
T/C [5]: 91 % of control
T/C [6]: 57 % of control
T/C (dose: 1600.0 mg/kg/injection, schedule: Q04DX004 (sc), vehicle: saline with Tween-80): 81 % of control
T/C (dose: 2400.0 mg/kg/injection, schedule: Q04DX004 (sc), vehicle: saline with Tween-80): 67 % of control

NC(=S)N/N=C\c1ncccc1OCc1cccc(N)c1
T/C (dose: 225.0 mg/kg/injection, schedule: Q04DX004 (sc), vehicle: saline with Tween-80): 220 % of control
T/C (dose: 450.0 mg/kg/injection, schedule: Q04DX004 (sc), vehicle: saline with Tween-80): 102 % of control
T/C (dose: 900.0 mg/kg/injection, schedule: Q04DX004 (sc), vehicle: saline with Tween-80): 121 % of control
T/C (dose: 1800.0 mg/kg/injection, schedule: Q04DX004 (sc), vehicle: saline with Tween-80): 99 % of control

O=c1[nH]cnc2n[nH]nc12
T/C [2]: 94 % of control
T/C [3]: 50 % of control
T/C [4]: 30 % of control
